According to ChEMBL document CHEMBL1152909, “Low molecular weight non-peptide mimics of omega-conotoxin GVIA” (Bioorg Med Chem Lett, 2009):
Active and inactive are the calls of the source. The calls are words filed in the database; no cut-off is given here.

target: Voltage-dependent N-type calcium channel subunit alpha-1B (Rattus norvegicus) (UniProt Q02294); assay: (§1) Inhibition of rat neuronal Cav2.2 channel
Sequence (Q02294 whole entry, looked up): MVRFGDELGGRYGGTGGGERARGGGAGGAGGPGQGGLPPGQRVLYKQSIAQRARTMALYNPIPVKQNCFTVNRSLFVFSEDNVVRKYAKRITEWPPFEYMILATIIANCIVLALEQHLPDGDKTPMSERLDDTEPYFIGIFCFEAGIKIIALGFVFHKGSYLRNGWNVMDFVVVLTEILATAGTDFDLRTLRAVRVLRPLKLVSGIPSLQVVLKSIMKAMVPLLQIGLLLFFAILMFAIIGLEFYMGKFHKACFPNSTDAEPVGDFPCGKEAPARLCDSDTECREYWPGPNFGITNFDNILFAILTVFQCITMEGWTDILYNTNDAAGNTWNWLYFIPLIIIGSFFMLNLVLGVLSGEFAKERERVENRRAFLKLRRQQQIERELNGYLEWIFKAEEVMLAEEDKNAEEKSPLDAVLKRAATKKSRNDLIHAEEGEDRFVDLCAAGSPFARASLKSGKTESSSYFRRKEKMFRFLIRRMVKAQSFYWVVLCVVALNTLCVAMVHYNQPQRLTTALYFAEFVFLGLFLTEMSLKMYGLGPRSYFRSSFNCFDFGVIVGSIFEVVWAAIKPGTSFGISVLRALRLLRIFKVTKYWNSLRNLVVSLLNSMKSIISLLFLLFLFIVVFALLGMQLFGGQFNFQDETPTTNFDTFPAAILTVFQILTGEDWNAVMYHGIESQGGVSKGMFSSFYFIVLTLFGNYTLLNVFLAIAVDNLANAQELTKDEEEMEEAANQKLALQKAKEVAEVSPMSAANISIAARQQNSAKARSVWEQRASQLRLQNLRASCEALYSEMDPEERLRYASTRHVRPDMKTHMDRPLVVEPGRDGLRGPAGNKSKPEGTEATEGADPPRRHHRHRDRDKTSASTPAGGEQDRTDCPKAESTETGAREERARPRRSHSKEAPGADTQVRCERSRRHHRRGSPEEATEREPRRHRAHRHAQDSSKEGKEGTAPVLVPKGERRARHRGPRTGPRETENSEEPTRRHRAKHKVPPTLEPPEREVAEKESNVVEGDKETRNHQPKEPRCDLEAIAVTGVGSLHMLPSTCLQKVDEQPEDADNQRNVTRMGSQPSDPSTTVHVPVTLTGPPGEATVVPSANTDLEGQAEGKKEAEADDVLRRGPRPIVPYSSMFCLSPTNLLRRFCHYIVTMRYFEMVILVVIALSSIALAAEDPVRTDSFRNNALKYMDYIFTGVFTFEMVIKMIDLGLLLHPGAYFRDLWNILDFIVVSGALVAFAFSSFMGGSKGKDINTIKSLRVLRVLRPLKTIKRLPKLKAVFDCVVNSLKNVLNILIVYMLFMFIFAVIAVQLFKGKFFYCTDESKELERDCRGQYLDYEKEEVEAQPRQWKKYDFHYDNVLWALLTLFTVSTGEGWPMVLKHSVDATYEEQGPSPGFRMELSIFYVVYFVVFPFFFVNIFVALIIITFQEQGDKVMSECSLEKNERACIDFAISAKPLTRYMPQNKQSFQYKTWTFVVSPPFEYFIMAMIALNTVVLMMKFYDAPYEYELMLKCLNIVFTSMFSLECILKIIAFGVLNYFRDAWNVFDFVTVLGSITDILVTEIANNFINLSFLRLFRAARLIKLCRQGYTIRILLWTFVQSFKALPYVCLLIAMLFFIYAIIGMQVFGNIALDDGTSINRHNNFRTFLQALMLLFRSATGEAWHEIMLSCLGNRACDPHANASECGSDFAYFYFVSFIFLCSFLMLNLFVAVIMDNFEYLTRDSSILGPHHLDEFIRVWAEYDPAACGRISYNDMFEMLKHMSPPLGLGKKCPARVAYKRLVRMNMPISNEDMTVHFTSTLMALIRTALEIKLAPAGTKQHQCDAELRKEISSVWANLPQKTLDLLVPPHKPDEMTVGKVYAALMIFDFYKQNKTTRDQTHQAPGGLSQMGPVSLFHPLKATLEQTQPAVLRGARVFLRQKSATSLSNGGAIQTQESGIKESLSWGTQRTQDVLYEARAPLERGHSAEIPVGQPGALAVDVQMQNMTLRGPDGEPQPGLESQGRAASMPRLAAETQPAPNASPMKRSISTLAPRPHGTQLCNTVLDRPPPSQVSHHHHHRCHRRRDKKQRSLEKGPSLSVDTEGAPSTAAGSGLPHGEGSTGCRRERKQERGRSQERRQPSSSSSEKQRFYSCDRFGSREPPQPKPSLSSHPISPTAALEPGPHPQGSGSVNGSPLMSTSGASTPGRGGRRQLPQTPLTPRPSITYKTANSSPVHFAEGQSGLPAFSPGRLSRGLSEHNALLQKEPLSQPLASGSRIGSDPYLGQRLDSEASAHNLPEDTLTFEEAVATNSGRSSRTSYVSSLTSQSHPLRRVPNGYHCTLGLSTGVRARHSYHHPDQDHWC

| SMILES | Activity |
| --- | --- |
| [N-]=[N+]=NCCCOc1ccc(CNc2nc3ccc(Oc4ccccc4)cc3s2)cc1 | inactive |
| Oc1ccc(CNc2nc3ccc(Oc4ccccc4)cc3s2)cc1 | inactive |
| ClCCCOc1ccc(CNc2nc3ccc(Oc4ccccc4)cc3s2)cc1 | inactive |
| CC(C)(C)OC(=O)NCCCOc1ccc(CNc2nc3ccc(Oc4ccccc4)cc3s2)cc1 | inactive |

target: Voltage-dependent N-type calcium channel subunit alpha-1B (Rattus norvegicus, UniProt Q02294); assay: as §1
Sequence (Q02294 whole entry): as the sequence (Q02294 whole entry, looked up) above

| SMILES | EC50 [µM] |
| --- | --- |
| NCCCOc1ccc(CNc2nc3ccc(Oc4ccccc4)cc3s2)cc1 | 76 |
| NCCCOc1ccccc1C(=O)N(Cc1ccc(OCCCN=C(N)N)cc1)c1nc2ccc(Oc3ccccc3)cc2s1 | 3.08 |
| NC(N)=NCCCOc1ccc(CNc2nc3ccc(Oc4ccccc4)cc3s2)cc1 | 5.8 |
| NCCCOc1ccccc1C(=O)N(Cc1ccc(OCCCN=C(N)N)cc1)c1nc2ccc(Oc3ccc(O)cc3)cc2s1 | 1.78 |
| NCCCOc1ccc(CN(C(=O)c2ccccc2OCCCN)c2nc3ccc(Oc4ccc(O)cc4)cc3s2)cc1 | 3.18 |
| NC(N)=NCCCOc1ccc(CNC(c2ccccc2)c2ccccc2)cc1 | 23 |
| NC(N)=NCCCOc1ccc(CNCC(c2ccccc2)c2ccccc2)cc1 | 12 |
| NCCCOc1ccccc1C(=O)Nc1nc2ccc(Oc3ccccc3)cc2s1 | > 100 |
| NCCCOc1ccc(CNC(c2ccccc2)c2ccccc2)cc1 | > 100 |
| NCCCOc1ccc(CNCC(c2ccccc2)c2ccccc2)cc1 | > 100 |
| NC(N)=NCCCOc1ccccc1C(=O)Nc1nc2ccc(Oc3ccccc3)cc2s1 | 33 |
| NCCCOc1ccc(CNc2ccc(Oc3ccccc3)cc2)cc1 | 34 |
| NC(N)=NCCCOc1ccc(CNc2ccc(Oc3ccccc3)cc2)cc1 | 21 |
